Where two headings read alike, the source gives them in different places.
Key:
NAT10 = target: T1, NAT10 (Homo sapiens, UniProt Q9H0A0); assay: NAT10 degradation in SiHa cells, Western blot; type: cell-based
T1 construct: depletion of total NAT10 protein in SiHa (human) and U14 (murine) CCa cell lines; endogenous in cells; host or cells: SiHa (human cervical cancer cell line)
T1 sequence (Q9H0A0 1-1025): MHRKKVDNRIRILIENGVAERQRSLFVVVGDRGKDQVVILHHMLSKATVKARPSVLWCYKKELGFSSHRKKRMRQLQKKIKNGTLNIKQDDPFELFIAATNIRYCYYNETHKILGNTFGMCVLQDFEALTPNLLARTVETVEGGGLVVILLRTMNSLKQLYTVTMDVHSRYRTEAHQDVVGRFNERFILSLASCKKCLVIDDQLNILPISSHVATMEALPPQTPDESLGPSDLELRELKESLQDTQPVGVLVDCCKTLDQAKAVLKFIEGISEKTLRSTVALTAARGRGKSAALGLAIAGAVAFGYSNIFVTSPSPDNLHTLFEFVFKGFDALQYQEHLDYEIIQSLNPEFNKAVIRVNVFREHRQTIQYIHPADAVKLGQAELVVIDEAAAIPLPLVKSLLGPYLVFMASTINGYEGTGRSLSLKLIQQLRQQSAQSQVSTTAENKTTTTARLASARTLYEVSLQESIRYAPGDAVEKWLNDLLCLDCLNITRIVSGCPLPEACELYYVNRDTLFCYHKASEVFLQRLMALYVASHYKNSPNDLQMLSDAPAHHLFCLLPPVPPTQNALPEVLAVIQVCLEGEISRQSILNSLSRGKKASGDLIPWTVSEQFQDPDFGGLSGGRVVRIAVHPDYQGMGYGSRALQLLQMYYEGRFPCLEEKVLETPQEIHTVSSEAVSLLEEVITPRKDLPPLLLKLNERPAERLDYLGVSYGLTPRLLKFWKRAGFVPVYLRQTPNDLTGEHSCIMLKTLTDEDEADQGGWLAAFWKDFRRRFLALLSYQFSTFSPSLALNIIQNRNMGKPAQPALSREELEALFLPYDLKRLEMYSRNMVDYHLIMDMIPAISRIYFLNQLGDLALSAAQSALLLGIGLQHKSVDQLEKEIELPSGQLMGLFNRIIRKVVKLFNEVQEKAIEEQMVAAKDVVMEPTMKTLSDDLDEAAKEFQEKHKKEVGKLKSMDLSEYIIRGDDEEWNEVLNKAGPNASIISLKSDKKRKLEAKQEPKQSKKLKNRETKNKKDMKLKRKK
Method: The human CCa cell line SiHa and the normal epithelial foreskin fibroblast line HFF-1 were purchased from the Cell Bank of the Chinese Academy of Sciences. Additionally, murine cervical carcinoma cell line U14 (RRID:CVCL_9U56) was purchased from Boster Company. HFF-1 and U14 cells were cultured in Dulbecco’s modified Eagle’s medium (DMEM) (Gibco, USA) supplemented with 10% heat-inactivated fetal bovine serum (FBS; Gibco, USA), while SiHa cells were incubated in RPMI 1640 medium (Gibco, USA) in a humid atmosphere with 5% CO2 at 37 °C. For hypoxia exposure, the cells were incubated in a sealed culture tank containing 5% CO2 and 0.1% O2 (MGC, Japan) for 36 h.
RIPA lysis buffer (Beyotime, China) mixed with 1% protease inhibitor (Sigma, US) was added to the cells, and a sample of total protein was obtained and then loaded onto an 8% or 12% polyacrylamide gel. The gel was placed in a buffer solution, and an electric current was applied. The separated proteins were subsequently transferred from the gel onto a PVDF membrane. Next, the membrane was blocked with 5% milk for 1 h to prevent nonspecific antibody binding. The membranes were subsequently incubated with anti-NAT10 (1:1000, Abcam, USA), anti-PD-L1 (1:1000, Proteintech, China), anti-HIF-1α (1:1000, Abmart, China), and anti-β-tubulin (1:1000, Proteintech, China) primary antibodies for 12 h. Afterward, the membrane was sequentially washed with 1× TBST and incubated for 1 h with an antimouse secondary antibody (1:6000, Elabscience, China) or antirabbit secondary antibody (1:6000, Elabscience, China). The target proteins were detected via chemiluminescence with a ChemiDoc MP Imaging System (Bio-Rad, US).

[1] = Pharmacokinetic study in male SD rats; type: in vivo; settings: Sprague-Dawley (SD), rat, plasma; for AUC(0-t): 0–24 h; for MRT last: read-out: MRT(0−t); for MRT inf: read-out: MRT(0−∞)
Method: Male SD rats (180–220 g) were purchased from Beijing Vital River Laboratory Animal Technology Co., Ltd. Blood samples (0.25 mL) were collected from the tail vein at 0.0833, 0.25, 0.5, 1, 2, 4, 6, 8, and 24 h after oral (10 mg/kg) or intravenous (2 mg/kg) administration of compound NP1192. Drug concentrations in the samples were determined by using liquid chromatography–mass spectrometry (LC-MS/MS). The mobile phase consisted of a mixture of solvent A (acetonitrile) and solvent B (formic acid/ultrapure water, 1:1000, v/v). The flow rate of the mobile phase was 0.3 mL/min, and the injection volume was 10 μL.

RNA ac4C modification = assay: ac4C RNA dot blot in SiHa cells; type: cell-based, human; settings: 20 μM, 36 h, vs Remodelin-treated and NAT10-knockdown groups
Method: RNA was extracted from cells via an RNA extraction kit (TransGen, China) and denatured by heating to 65 °C for 5 min in the presence of 2× RNA denaturation buffer (Solarbio, China) followed by an equal amount of 20x SSC buffer (Beyotime, China). A nylon membrane (Yeasen, China) was used to immobilize the denatured RNA by dotting RNA samples onto the membrane and cross-linking the RNA to the membrane via UV light. The samples were stained with methylene blue and photographed. Furthermore, the membrane was blocked with 5% milk and incubated with an anti-ac4C primary antibody (1:1000, Abcam, US) for 12 h. After the unbound primary antibody was washed away, the membrane was incubated with a secondary antibody (1:6000, Elabscience, China). The membrane was then washed to remove unbound secondary antibodies, and a detection reagent (Bio-Rad, US) was added to visualize the RNA bands via chemiluminescence with a ChemiDoc MP Imaging System (Bio-Rad, US).

SMILES: N#Cc1ccc(-c2csc(N(CCCCCCC(=O)N3CCN(c4cccc5c4C(=O)N(C4CCC(=O)NC4=O)C5=O)CC3)N=C3CCCC3)n2)cc1 (centres unmarked) [NP1192]
- NAT10 degradation rate (NAT10; SiHa cells, 1.25 μM, 36 h): 28%
- NAT10 degradation rate (NAT10; SiHa cells, 2.5 μM, 36 h): 32%
- NAT10 degradation rate (NAT10; SiHa cells, 5 μM, 36 h): 40%
- NAT10 degradation rate (NAT10; SiHa cells, 10 μM, 36 h): 43%
- NAT10 degradation rate (maximum) (NAT10; SiHa cells, 20 μM, 36 h): 69%
- NAT10 degradation (NAT10; SiHa cells, after 24 h): 20%
- NAT10 degradation rate (NAT10; SiHa cells, panel TP1–32 at the same time and concentration, Figure 1E): 71%
- hook effect in NAT10 degradation (NAT10; concentrations as high as 20 μM): did not exhibit the classical hook effect
- Cmax ([1]; iv, i.v. 2 mg/kg): 759 ± 134 ng/mL
- AUC(0-t) ([1]; iv, i.v. 2 mg/kg): 365 ± 42.6 ng·h/mL
- AUC(0-inf) ([1]; iv, i.v. 2 mg/kg): 367 ± 43 ng·h/mL
- Tmax ([1]; iv, i.v. 2 mg/kg): 0.0833 h
- clearance ([1]; iv, i.v. 2 mg/kg): 91.7 mL/min/kg
- half-life ([1]; iv, i.v. 2 mg/kg): 0.967 ± 0.214 h
- MRT last ([1]; iv, i.v. 2 mg/kg): 0.529 ± 0.0268 h
- MRT inf ([1]; iv, i.v. 2 mg/kg): 0.57 ± 0.0206 h
- Vd ([1]; iv, i.v. 2 mg/kg, read-out: Vz): 7.6 ± 1.39 L/kg
- bioavailability ([1]; oral, p.o. 10 mg/kg vs i.v. 2 mg/kg, read-out: oral bioavailability (F)): 1.35%
- AUC(0-inf) ([1]; po, p.o. 10 mg/kg): 29.5 ± 1.59 ng·h/mL
- Tmax ([1]; po, p.o. 10 mg/kg): 1.67 h
- half-life ([1]; po, p.o. 10 mg/kg): 2.4 ± 1.15 h
- MRT last ([1]; po, p.o. 10 mg/kg): 1.56 ± 0.358 h
- MRT inf ([1]; po, p.o. 10 mg/kg): 2.85 ± 0.862 h
- Cmax ([1]; po, p.o. 10 mg/kg): 13.9 ± 6.42 ng/mL
- AUC(0-t) ([1]; po, p.o. 10 mg/kg): 24.7 ± 1.11 ng·h/mL
- RNA ac4C levels (RNA ac4C modification): significant reduction in ac4C levels

From paper PMC12670317, “Targeted NAT10 Degradation by PROTAC NP1192 Suppresses Hypoxia-Adaptive Glycolysis and Reinvigorates CD8^+ Effector T‑Cell Function for Synergistic Cancer Immunotherapy” (ACS Central Science, 2025)
